These results are taken from ChEMBL document CHEMBL3259626, “Discovery of the first potent and selective Mycobacterium tuberculosis Zmp1 inhibitor” (Bioorg Med Chem Lett, 2014).

Experiment [1] in a line: Competitive inhibition of full length Mycobacterium tuberculosis recombinant ZMP1 expressed in Escherichia coli BL21(DE3) using MCA-Pro-Leu-Gly-Leu-Dpa-Ala-Arg-NH2 as substrate by sigma plot analysis.
In experiment [2] the target is Neprilysin (Homo sapiens, UniProt P08473). As to the kind of experiment: Inhibition of human neprilysin by fluorometric analysis.
Experiment [3] is described as follows: Selectivity index, ratio of Ki for human neprilysin to Ki for full length Mycobacterium tuberculosis recombinant ZMP1.
Experiment [4] concerns Mycobacterium tuberculosis. As to the kind of experiment: Inhibition of full length Mycobacterium tuberculosis recombinant ZMP1 expressed in Escherichia coli BL21(DE3) using MCA-Pro-Leu-Gly-Leu-Dpa-Ala-Arg-NH2 as substrate at 100 uM by fluorometric analysis relative to control.

Chain of Neprilysin (P08473 whole entry): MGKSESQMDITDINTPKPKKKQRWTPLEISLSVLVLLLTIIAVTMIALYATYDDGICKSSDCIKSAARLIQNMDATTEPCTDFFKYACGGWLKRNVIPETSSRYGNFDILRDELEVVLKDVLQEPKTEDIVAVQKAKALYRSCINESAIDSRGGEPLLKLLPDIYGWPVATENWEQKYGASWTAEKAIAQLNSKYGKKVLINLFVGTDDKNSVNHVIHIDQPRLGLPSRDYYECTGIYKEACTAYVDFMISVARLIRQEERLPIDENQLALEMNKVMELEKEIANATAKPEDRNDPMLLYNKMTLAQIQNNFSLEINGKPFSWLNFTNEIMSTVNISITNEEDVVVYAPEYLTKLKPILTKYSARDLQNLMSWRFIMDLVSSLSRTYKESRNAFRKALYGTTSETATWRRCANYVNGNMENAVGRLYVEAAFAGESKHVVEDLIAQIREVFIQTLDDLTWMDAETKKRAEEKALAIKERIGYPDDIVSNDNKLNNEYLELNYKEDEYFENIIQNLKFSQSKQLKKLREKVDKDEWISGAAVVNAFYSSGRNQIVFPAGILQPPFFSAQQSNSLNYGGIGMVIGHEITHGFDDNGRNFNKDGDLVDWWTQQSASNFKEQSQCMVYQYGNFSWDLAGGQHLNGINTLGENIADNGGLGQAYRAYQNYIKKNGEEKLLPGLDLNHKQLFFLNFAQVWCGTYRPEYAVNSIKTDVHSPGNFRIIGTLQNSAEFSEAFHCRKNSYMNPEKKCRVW

`O=C(OCc1ccccc1)c1ccc(/C=C2\SC(=S)N([C@H](Cc3ccccc3)C(=O)O)C2=O)cc1`: the Ki (usually the equilibrium dissociation constant of an inhibitor or competing ligand from its target) in experiment [1] amounted to 1.8 µM. For the compound `O=C(O)c1ccc(/C=C2/SC(=S)N([C@H](Cc3ccccc3)C(=O)O)C2=O)cc1`, the Ki in experiment [2] stood at 25 µM; in experiment [1], 0.094 µM. In addition, the Ratio Ki in experiment [3] was determined as 266.

For the compound `O=C(O)c1ccc(/C=C2/SC(=S)N(C(Cc3ccccc3)C(=O)O)C2=O)cc1` (racemic), the Ki in experiment [1] came to 0.39 µM. Still for that read-out and setting: under `O=C1/C(=C\c2ccc(-c3cccc([N+](=O)[O-])c3)o2)SC(=S)N1CCS(=O)(=O)O` stands 32.2 µM. The same measure, in the same setting: under `COC(=O)c1ccc(/C=C2\SC(=S)N([C@H](Cc3ccccc3)C(=O)O)C2=O)cc1` stands 5.7 µM.

As for `Cn1c(=O)c2c(nc(SCC(=O)O)n2Cc2ccc(Cl)cc2)n(C)c1=O`, in experiment [4], the inhibition (commonly the drop in the measured response relative to a control, in per cent) is 28%. In the case of `C=Cc1[nH]c(C(C)NC(=O)c2ccc(=O)n(CC(=O)NCc3ccc(F)cc3)c2)nc1C` (stereo not drawn), in experiment [4], the inhibition turned out to be 16%. Take `O=S(=O)(O)CCCSc1sc2ccc(Cl)cc2[n+]1CCCS(=O)(=O)O`: in experiment [1], the Ki turned out to be 32.9 µM. Besides, the inhibition in experiment [4] was 78%. For `O=C(O)CN1C(=O)/C(=C2/Sc3ccccc3N2CCCS(=O)(=O)O)SC1=S`, in experiment [1], the Ki stood at 4.8 µM. Take `O=C(NC(Cc1ccccc1)C(=O)O)/C(=C/c1cccc([N+](=O)[O-])c1)NC(=O)c1ccco1` (stereo not drawn): the inhibition in experiment [4] was 54%. For `O=C(O)c1ccc(/C=C2/SC(=S)N([C@@H](Cc3ccccc3)C(=O)O)C2=O)cc1`, the Ki was 37 µM in experiment [2] and 1.7 µM in experiment [1]. The Ratio Ki in experiment [3] turned out to be 21.7. Turning to `O=C(O)CC(C(=O)O)N1C(=O)/C(=C\c2ccc(O)c(O)c2)SC1=S` (stereo not drawn), the Ki in experiment [1] turned out to be 2.7 µM. With `O=C(O)CCC(C(=O)O)N1C(=O)/C(=C\c2ccc(-c3cccc(Cl)c3Cl)o2)SC1=S` (stereo not drawn), in experiment [1], the Ki amounted to 3.7 µM.
